Laboratory results as given in US20250134870A1, “PATHWAY MODULATOR, PHARMACEUTICAL COMPOSITION HAVING SAME, USE THEREOF, AND THERAPEUTIC METHOD USING SAME” (Jiangsu Yahong Meditech Co., Ltd., priority 2021, published 2025).

Columns and labels:
[1] = system: dextran sulfate sodium (DSS)-induced colitis; experiment: DSS-induced colitis in mice: body weight, DAI score, colon density (Examples 1, 3); assay type: in vivo, C57BL/6J mice
Experimental: 8-10 week old female C57BL/6J mice purchased from Charles River Laboratories were used. The mice were housed in a room at constant temperature (20+2° C.) (5 mice per cage) with a 12-hour light-dark cycle. All protocols were approved by the Institutional Animal Care and Use Committee of WuXi AppTec. These mice were adapted to the housing conditions at the animal experiment center of WuXi AppTec for at least three days prior to the experiment. […] At the experimental endpoint (see hereinafter), mice were euthanized and endpoint samples were obtained. Mice in the normal group were not given 3% DSS aqueous solution to induce colitis and were free to drink blank water. […] The animal body weight and DAI score were assessed under double-blind conditions, that is, the researchers collected the body weight data of mice and observed and scored the stool characteristics and blood stools every day, without knowing the group and dosing regimen. The DAI score was the sum of the weight loss score, stool score and bleeding score. […] The data were analyzed by analysis of variance, specifically by using the following process: using Graph Pad Prism 6.0 software to carry out post-hoc Dunnett's multiple comparison test. […] Data were expressed as mean±S.E.M. The experimental endpoint was 24 hours after administration on Day 8 for the positive drug control group and the Test group 1 #to Test group 7 #of Example 1; the experimental endpoint of the normal group and the solvent group was the same as that of the positive drug control group and Test group 1 #to Test group 7 #.

[2] = system: peripheral blood cells; experiment: Bleomycin-induced skin fibrosis in mice: blood routine test of peripheral blood (Example 5); assay type: in vivo, male C57BL/6 mice
Experimental: Animals were weighed at the experimental endpoints and the body weight was recorded to calculate the volume of administration. 6 h after dosing, firstly, whole blood was collected from the orbital venous plexus of mice and subjected to blood routine test using an automated Hematology analyzer (Sysmex XS-800i). The specific test steps were as follows: the blood sample in the test tube was thoroughly mixed before testing; the sample was placed under the sampling needle, then injected by pressing the start button, and removed after indicator light of the instrument was off; the instrument started to automatically test the sample and output the results.

[3] = Body weight and weight change rate of EAU rats (Example 6); assay type: in vivo, Lewis rats
From the text: Wherein, Day 0 referred to the day of immunization. The body weight of each rat was monitored twice a week after immunization.
Dosing started from Day 0 accurately according to the animal body weight for a total of 16 days.

[4] = 100 mg/kg PO QD, 28 days (Test group 3#) vs solvent group

NCc1c[nH]c(=S)n1[C@H]1CCc2c(F)cc(F)cc2C1 [Nepicastat]
Body weight on Day 7, g ([1]; 30 mg/kg PO QD × 8 days): 19.71 g | Body weight on Day 8, g ([1]; 30 mg/kg PO QD × 8 days): 18.88 g | Body weight on Day 8/initial body weight, % ([1]; 30 mg/kg PO QD × 8 days): 90.68% | DAI score on Day 8 ([1]; 30 mg/kg PO QD × 8 days): 5.30 | severity of DSS-induced colitis and disease activity ([1]; Nepicastat 30, Etamicastat 100, Zamicastat 100 mg/kg PO QD × 8 days (Test groups 1#, 4#, 7#) vs solvent group): ameliorated the severity of DSS-induced colitis and reduced disease activity | lymphocytes in peripheral blood [2, 4]: significant differences in reducing | monocytes in peripheral blood [2, 4]: significant differences in reducing | neutrophils in peripheral blood [2, 4]: significant differences in reducing | number of increased inflammatory cells in peripheral blood after bleomycin stimulation ([2]; 50 and 100 mg/kg PO QD, 28 days (Test groups 2#, 3#)): reduce the number of increased inflammatory cells in peripheral blood | Rat body weight ([3]; Day 2, 25 mg/kg PO QD): 193.95 g | Weight change rate (%) ([3]; Day 2, 25 mg/kg PO QD): 3.25% | Rat body weight ([3]; Day 2, 50 mg/kg PO QD): 194.04 g | Weight change rate (%) ([3]; Day 2, 50 mg/kg PO QD): 2.53% | Rat body weight ([3]; Day 2, 100 mg/kg PO QD): 194.02 g | Weight change rate (%) ([3]; Day 2, 100 mg/kg PO QD): 2.11% | Rat body weight ([3]; Day 6, 25 mg/kg PO QD): 204.67 g | Weight change rate (%) ([3]; Day 6, 25 mg/kg PO QD): 7.06% | Rat body weight ([3]; Day 6, 50 mg/kg PO QD): 202.28 g | Weight change rate (%) ([3]; Day 6, 50 mg/kg PO QD): 6.90% | Rat body weight ([3]; Day 6, 100 mg/kg PO QD): 205.97 g | Weight change rate (%) ([3]; Day 6, 100 mg/kg PO QD): 8.45% | Rat body weight ([3]; Day 9, 25 mg/kg PO QD): 207.81 g | Weight change rate (%) ([3]; Day 9, 25 mg/kg PO QD): 9.26% | Rat body weight ([3]; Day 9, 50 mg/kg PO QD): 206.07 g | Weight change rate (%) ([3]; Day 9, 50 mg/kg PO QD): 8.83% | Rat body weight ([3]; Day 9, 100 mg/kg PO QD): 214.36 g | Weight change rate (%) ([3]; Day 9, 100 mg/kg PO QD): 12.84% | Rat body weight ([3]; Day 13, 25 mg/kg PO QD): 214.28 g | Weight change rate (%) ([3]; Day 13, 25 mg/kg PO QD): 12.23% | Rat body weight ([3]; Day 13, 50 mg/kg PO QD): 216.20 g | Weight change rate (%) ([3]; Day 13, 50 mg/kg PO QD): 14.24% | Rat body weight ([3]; Day 13, 100 mg/kg PO QD): 223.98 g | Weight change rate (%) ([3]; Day 13, 100 mg/kg PO QD): 17.96% | Rat body weight ([3]; Day 16, 25 mg/kg PO QD): 219.00 g | Weight change rate (%) ([3]; Day 16, 25 mg/kg PO QD): 12.36% | Rat body weight ([3]; Day 16, 50 mg/kg PO QD): 218.42 g | Weight change rate (%) ([3]; Day 16, 50 mg/kg PO QD): 15.41% | Rat body weight ([3]; Day 16, 100 mg/kg PO QD): 227.40 g | Weight change rate (%) ([3]; Day 16, 100 mg/kg PO QD): 19.77% | Rat body weight ([3]; Day −1, 25 mg/kg PO QD): 188.31 g | Weight change rate (%) ([3]; Day −1, 25 mg/kg PO QD): 0.00% | Rat body weight ([3]; Day −1, 50 mg/kg PO QD): 189.34 g | Weight change rate (%) ([3]; Day −1, 50 mg/kg PO QD): 0.00% | Rat body weight ([3]; Day −1, 100 mg/kg PO QD): 189.92 g | Weight change rate (%) ([3]; Day −1, 100 mg/kg PO QD): 0.00%
